Measurements: US20140024663A1, “ATB(0,+) AMINO ACID TRANSPORTER AS A DRUG TARGET FOR TREATMENT OF ESTROGEN RECEPTOR-POSITIVE BREAST CANCER” (GEORGIA HEALTH SCIENCES UNIVERSITY RESEARCH INSTITUTE, INC., priority 2012, published 2014)

Tests used:
[1] = target: T1, Human SLC6A14 (Homo sapiens, UniProt Q9UN76); experiment: SLC6A14 transport function in X. laevis oocytes (two-microelectrode voltage-clamp); format: cell-based; conditions: 1 mM α-MT; currents induced by 100 M (so in the source) leucine, glutamine or arginine
T1 construct: expressed in transfected cells; host or cells: Xenopus laevis oocytes, microinjected with human SLC6A14 cRNA
T1 sequence (Q9UN76 1-642): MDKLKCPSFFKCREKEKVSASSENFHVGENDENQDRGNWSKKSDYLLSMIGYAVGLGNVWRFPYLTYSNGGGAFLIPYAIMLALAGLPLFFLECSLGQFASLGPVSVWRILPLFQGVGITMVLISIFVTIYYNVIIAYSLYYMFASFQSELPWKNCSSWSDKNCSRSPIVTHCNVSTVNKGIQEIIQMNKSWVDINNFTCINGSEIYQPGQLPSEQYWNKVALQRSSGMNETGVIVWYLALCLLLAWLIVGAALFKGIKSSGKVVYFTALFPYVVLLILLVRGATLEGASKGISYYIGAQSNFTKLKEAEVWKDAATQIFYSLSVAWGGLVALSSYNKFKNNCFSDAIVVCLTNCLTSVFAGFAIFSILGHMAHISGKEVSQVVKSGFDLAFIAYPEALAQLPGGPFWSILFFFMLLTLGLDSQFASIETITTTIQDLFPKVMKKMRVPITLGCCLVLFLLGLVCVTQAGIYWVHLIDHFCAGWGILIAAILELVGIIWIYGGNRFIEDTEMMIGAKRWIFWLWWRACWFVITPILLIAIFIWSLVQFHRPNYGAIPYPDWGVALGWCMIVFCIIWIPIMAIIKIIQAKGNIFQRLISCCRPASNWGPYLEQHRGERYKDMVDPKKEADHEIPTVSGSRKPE
From the text: FIGS. 3A and 3B. Natactivation kinetics of SLC6A14-mediated transport of leucine (FIG. 3A) and arginine and glutamine (FIG. 3B). Human SLC6A14 was expressed heterologously in X. laevis oocytes by microinjection of cRNA. Four days following injection, oocytes were used for electrophysiological studies using the two-microelectrode voltage-clamp method. […] Since the expression levels varied from oocyte to oocyte resulting in varying magnitudes of amino acid-induced currents, the currents were normalized by taking the magnitude of the currents induced at 100 mM Na^+ as 1 in each oocyte and calculating the magnitude of the currents induced at other concentrations of Na^+ as a fraction of this maximal current. The experiments were done with three different oocytes and the results are given as means±SE. Insets, Hill plots.
FIG. 4. Cl^−-activation kinetics of SLC6A14-mediated transport of leucine, arginine, and glutamine. […] The experiments were done with three different oocytes and the results are given as means±SE.
FIGS. 5A to 5C. Blockade of SLC6A14-mediated transport of leucine (FIG. 5A), glutamine (FIG. 5B), and arginine (FIG. 5C) by α-MT. Oocytes injected with human SLC6A14 cRNA were perifused with 100 µM leucine, 100 μM glutamine, or 100 μM arginine under varying experimental conditions as indicated.
Analysis of SLC6A14 transport function in X. laevis oocytes. SLC6A14-mediated transport of leucine, glutamine, and arginine and its blockade by α-MT were studied using the X. laevis oocyte heterologous expression system as described previously (Hatanaka et al., 2001, J Clin Invest; 107:1035-1043; and Karunakaran et al., 2008, Biochem J; 414:343-355). Human cloned SLC6A14 cDNA was used in these studies.

[2] = tested on: mTOR in MCF7 cells; experiment: mTOR activity by western blot (phosphorylation of S6 and S6 kinase); format: cell-based, human; conditions: MCF7, α-MT 2.5 mM, 24, 48 or 72 h
Method: (§1) FIGS. 9A to 9D. Influence of α-MT on mTOR activity In FIG. 9A, MCF7 and MB231 cells were treated without or with α-MT (2.5 mM) for 24 h, 48 h, or 72 h, and then the cell lysates were used for western blot. Influence of α-MT with or without 3-MA on cell death. In FIG. 9B, MCF7, MB231, and MCF10A cells were treated for 48 h without or with α-MT (2.5 mM), 3-MA (10 mM), or α-MT (2.5 mM) plus 3-MA (10 mM), and then analyzed for cell death by propidium iodide (PI) staining and FACS-based cell cycle analysis. In FIG. 9C, MCF7 cells were treated for 48 h without or with α-MT (2.5 mM), 3-MA (10 mM), or α-MT (2.5 mM) plus 3-MA (10 mM), and then analyzed for apoptotic cell death by annexin V labeling. In FIG. 9D, MCF7 and MB231 cells were treated without or with 2.5 mM α-MT for 24 h, 48 h, or 72 h. Cell lysates were then used for western blot analysis of lamin A degradation product using an antibody that recognizes specifically the proteolytic cleavage product. β-Actin was used as an internal control.

[3] = tested on: mTOR in SLC6A14-negative cells (MB231); experiment: as above; format: cell-based, human; conditions: α-MT 2.5 mM, 24, 48 or 72 h
Method: as §1

[4] = tested on: MCF7 cells; experiment: Cell death by propidium iodide staining and FACS cell cycle analysis; format: cell-based, human; conditions: 48 h
[5] = tested on: MCF7 cells; experiment: Apoptotic cell death by annexin V labeling; format: cell-based, human; conditions: MCF7, single agent (α-MT 2.5 mM or 3-MA 10 mM), 48 h
Method: as §1
Apoptosis assay. Fluorescence-activated cell sorting (FACS) was used to monitor cell death. MCF7 cells were treated with or without α-MT, 3-MA, or α-MT plus 3-MA. Control and treated cells were then fixed in 50% ethanol, treated with 0.1% sodium citrate, 1 mg/ml RNase A, and 50 μg/ml propidium iodide, and then subjected to FACS analysis (FACS Caliber, Becton Dickinson). FITC-labeled annexin V was used to differentiate apoptotic cell death from necrotic cell death.

In the case of `CC(N)(Cc1c[nH]c2ccccc12)C(=O)O` (racemic) [α-MT, α-methyl-DL-tryptophan], the “blockade of amino acid-induced inward currents” value [1] is reported as “blocked”, the “mTOR inhibition: phosphorylation of S6 and S6 kinase” value [2] is reported as “decreased phosphorylation” and the mTOR activity [3] is reported as “not affected”. The “cell death (propidium iodide, cell cycle analysis)” value ([4]; MCF7, α-MT 2.5 mM alone) was “significant cell death”, the “cell death (propidium iodide, cell cycle analysis)” value ([4]; MCF7, α-MT 2.5 mM with cotreatment 3-MA 10 mM) was “further potentiated” and the “apoptotic cell death by annexin V labeling” value [5] was “induced apoptotic cell death”.
